Measured values: patent US8889398B2, “Composition for inactivating an enveloped virus” (Viroblock SA, priority 2006, dated 2014)
“Also recorded” adds a separate entry of the source.

Tests used:
[1] = tested on: rSeV-Luc (recombinant Sendai virus); assay: Inactivation assay with or without cyclodextrin, rSeV-Luc, luciferase activity in MK2 cells; type: cell-based
Experimental: MK2 (monkey) cells were grown at 37° C. in DMEM containing 5% of bovine serum albumin (BSA) until they reached 70% of confluence.
A recombinant Sendai virus was used, rSeV-Luc, which encodes the Photinus pyralis luciferase gene.
The nPLV preparations were diluted in PBS to the indicated concentrations. The diluted nPLVs were then mixed with the viruses, either alone (no cyclodextrin) or in combination with 0.5 mM (final concentration) of cyclodextrin, in a volume of 100 μl. The virus-nPLV mixtures were incubated at room temperature for 20 minutes with shaking. About 10^5 viral particles were used.
Following incubation, the mixtures were diluted to […] in DMEM without BSA and directly added onto cells. Infections were performed at 33° C. for one hour, and then infectious mixes were removed. Cells were washed once with DMEM without BSA, 10 ml of DMEM with 1% BSA were added and incubation was further performed at 37° C. for 36 hours. Experiment was done in duplicates.
MK2 cells were lysed and luciferase activity was determined using the Promega's Luciferase Assay System. Measurements were done with TD-20/20 luminometer (Turner Designs).

[2] = tested on: cellular integrity; conditions: 50-100 mM, range of concentrations used in most in vitro experiments; cited from earlier work

SMILES: OC[C@H]1O[C@@H]2O[C@H]3[C@H](O)[C@@H](O)[C@@H](O[C@H]4[C@H](O)[C@@H](O)[C@@H](O[C@H]5[C@H](O)[C@@H](O)[C@@H](O[C@H]6[C@H](O)[C@@H](O)[C@@H](O[C@H]7[C@H](O)[C@@H](O)[C@@H](O[C@H]8[C@H](O)[C@@H](O)[C@@H](O[C@H]1[C@H](O)[C@H]2O)O[C@@H]8CO)O[C@@H]7CO)O[C@@H]6CO)O[C@@H]5CO)O[C@@H]4CO)O[C@@H]3CO [β-cyclodextrin]
- effect of β-cyclodextrin on the viral inactivation by nPLVs ([1]; 0.5 mM β-cyclodextrin with nPLVs composed of PCE with 0.1% mol of oleic acid (OA), nPLVs 0.02%, 0.05% and 0.1%, FIG. 2A): greatly enhances the viral inactivation; also recorded: strong synergistic effect
- concentration at which a direct effect of β-cyclodextrin alone on the viral particles is observed ([1]; in absence of nPLVs, FIG. 2B): higher than 5 mM
- effect on cellular integrity [2]: detrimental for cellular integrity and can induce cell death
